How the values were obtained:
Format in all cases: in vivo
[1] = system: green peach aphid (Myzus persicae); assay: Myzus persicae spray test (MYZUPE); conditions: 500 g/ha, after 6 days, Chinese cabbage disks
Method: Myzus persicae Spray Test (MYZUPE) Solvents: 78 parts by weight of acetone • • 1.5 parts by weight of dimethylformamide Emulsifier: 0.5 part by weight of alkylaryl polyglycol ether To produce a suitable preparation of active compound, 1 part by weight of active compound is mixed with the stated amounts of solvent and emulsifier, and the concentrate is diluted with emulsifier-containing water to the desired concentration. Disks of Chinese cabbage (Brassica pekinensis) infested by all stages of the green peach aphid (Myzus persicae) are sprayed with an active compound formulation of the desired concentration. After 6 days, the effect in % is determined 100% here means that all of the aphids have been killed; 0% means that none of the aphids have been killed.

[2] = system: greenhouse red spider mite (Tetranychus urticae); assay: Tetranychus spray test, OP-resistant (TETRUR); conditions: after 6 days, bean leaf discs
Method: Tetranychus Spray Test, OP-resistant (TETRUR)
(§1) Solvents: 78.0 parts by weight of acetone • • 1.5 parts by weight of dimethylformamide
Emulsifer: 0.5 part by weight of alkylaryl polyglycol ether
(§2) To produce a suitable preparation of active compound, 1 part by weight of active compound is mixed with the stated amounts of solvent and emulsifier, and the concentrate is diluted with emulsifier-containing water to the desired concentration.
Discs of bean leaves (Phaseolus vulgaris) which are infested by all stages of the greenhouse red spider mite (Tetranychus urticae) are sprayed with an active compound preparation of the desired concentration.
After 6 days, the effect in % is determined 100% here means that all of the spider mites have been killed; 0% means that none of the spider mites have been killed.

[3] = system: Lucilia cuprina larvae; assay: Lucilia cuprina (48 h) test; conditions: 100 ppm, after 48 hours, treated horse meat
Method: Lucilia Cuprina (48 h) Solvent: dimethyl sulfoxide To produce a suitable preparation of active compound, 10 mg of active compound are mixed with 0.5 ml of dimethyl sulfoxide, and the concentrate is diluted with water to the desired concentration. Vessels containing horse meat treated with the active compound preparation of the desired concentration are populated with about 20 Lucilia cuprina larvae. After 48 hours, the kill in % is determined 100% means that all larvae have been killed; 0% means that no larvae have been killed.

[4] = system: larvae of the mustard beetle (Phaedon cochleariae); assay: Phaedon cochleariae spray test (PHAECO); conditions: 500 g/ha, after 7 days, Chinese cabbage leaf disks
Method: Phaedon Cochleariae Spray Test (PHAECO)
as §1
Emulsifier: 0.5 part by weight of alkylaryl polyglycol ether
as §2
After 7 days, the effect in % is determined 100% means that all beetle larvae have been killed; 0% means that none of the beetle larvae have been killed.

With `CON1CCC2(CC1)NC(=O)C(c1nc(-c3ccc(Cl)cc3)nn1C)=C2O` [Example I-1-a10-3] the “efficacy (effect in %, aphids killed)” value [1] was 90% and the “efficacy (effect in %, spider mites killed)” value ([2]; 100 g/ha) was 90%.

With `Cn1nc(-c2ccc(Cl)cc2)nc1-c1c(O)n2n(c1=O)CCOCC2` [Example I-8-a3] the “efficacy (effect in %, aphids killed)” value [1] was 90% and the “efficacy (effect in %, spider mites killed)” value ([2]; 100 g/ha) was 90%.

`CCON1CCC2(CC1)NC(=O)C(c1nc(-c3ccc(Cl)cc3)nn1C)=C2O` [Example I-1-a9-3] was tested, and the “efficacy (effect in %, aphids killed)” value [1] was 90% and the “efficacy (effect in %, spider mites killed)” value ([2]; 100 g/ha) was 90%.

`Cn1nc(-c2ccc(Cl)cc2)nc1C1=C(O)C(C)(C)NC1=O` [Example I-1-a1-3] was tested, and the “efficacy (effect in %, spider mites killed)” value ([2]; 500 g/ha) was 100% and the “efficacy (kill in %)” value [3] was 90%.

`CCn1nc(-c2ccc(Cl)cc2)nc1C1=C(O)C(C)(C)NC1=O` [Example I-1-a1-4] was tested, and the “efficacy (effect in %, aphids killed)” value [1] was 80% and the “efficacy (effect in %, spider mites killed)” value ([2]; 500 g/ha) was 80%.

In the case of `COC1CCC2(CC1)NC(=O)C(c1nc(-c3ccc(Cl)cc3)nn1C)=C2O` (centres unmarked) [Example I-1-a2-3], the “efficacy (effect in %, aphids killed)” value [1] is reported as 100% and the “efficacy (effect in %, spider mites killed)” value ([2]; 500 g/ha) is reported as 100%.

With `Cn1nc(-c2ccccc2)nc1C1=C(O)C2(CCOCC2)NC1=O` [Example I-1-a3-5] the “efficacy (effect in %, aphids killed)” value [1] was 100%.

With `CC1COC2(CCC3(CC2)NC(=O)C(c2nc(-c4ccc(Cl)cc4)nn2C)=C3O)OC1` (centres unmarked) [Example I-1-a13-3] the “efficacy (effect in %, aphids killed)” value [1] was 90%.

With `CCCOC1CCC2(CC1)NC(=O)C(c1nc(-c3ccc(Cl)cc3)nn1C)=C2O` (centres unmarked) [Example I-1-a6-3] the “efficacy (effect in %, beetle larvae killed)” value [4] was 100%, the “efficacy (effect in %, aphids killed)” value [1] was 90% and the “efficacy (effect in %, spider mites killed)” value ([2]; 500 g/ha) was 90%.

`CCn1nc(-c2ccc(Cl)cc2)nc1C1=C(O)C2CCCN2C1=O` (centres unmarked) [Example I-1-a4-4] was tested, and the “efficacy (effect in %, spider mites killed)” value ([2]; 500 g/ha) was 100%.

With `Cn1nc(-c2ccc(Cl)cc2)nc1C1=C(O)C2(CCC(C(F)(F)F)CC2)NC1=O` (centres unmarked) [Example I-1-a8-3] the “efficacy (effect in %, spider mites killed)” value ([2]; 500 g/ha) was 100%.

`CC1CCC2(CC1)NC(=O)C(c1nc(-c3ccc(Cl)cc3)nn1C)=C2O` (centres unmarked) [Example I-1-a7-3] was tested, and the “efficacy (effect in %, aphids killed)” value [1] was 90% and the “efficacy (effect in %, spider mites killed)” value ([2]; 500 g/ha) was 90%.

With `Cn1nc(-c2ccc(F)cc2)nc1C1=C(O)C2(CCOCC2)NC1=O` [Example I-1-a3-1] the “efficacy (effect in %, spider mites killed)” value ([2]; 500 g/ha) was 100%.

In the case of `CCn1nc(-c2ccc(F)cc2)nc1-c1c(O)n2n(c1=O)CCOCC2` [Example I-8-a5], the “efficacy (effect in %, spider mites killed)” value ([2]; 100 g/ha) is reported as 90%.

`C=CCOC1CCC2(CC1)NC(=O)C(c1nc(-c3ccc(Cl)cc3)nn1C)=C2O` (centres unmarked) [Example I-1-a11-3] was tested, and the “efficacy (effect in %, aphids killed)” value [1] was 90% and the “efficacy (effect in %, spider mites killed)” value ([2]; 100 g/ha) was 90%.

With `COC1CCC2(CC1)NC(=O)C(c1nc(-c3ccc(F)cc3)nn1C)=C2O` (centres unmarked) [Example I-1-a2-1] the “efficacy (effect in %, aphids killed)” value [1] was 100% and the “efficacy (effect in %, spider mites killed)” value ([2]; 500 g/ha) was 100%.

With `CC(C)n1nc(-c2ccc(Cl)cc2)nc1C1=C(O)C(C)(C)NC1=O` [Example I-1-a1-9] the “efficacy (effect in %, spider mites killed)” value ([2]; 100 g/ha) was 90%.

With `COC1CCC2(CC1)NC(=O)C(c1nc(-c3ccccc3)nn1C)=C2O` (centres unmarked) [Example I-1-a2-5] the “efficacy (effect in %, aphids killed)” value [1] was 100%.
